For orientation: MIC means the lowest concentration found to suppress growth. Read a high MIC as a need for much substance. In general, IC50 refers to the midpoint of a concentration-inhibition curve.

These results are taken from patent US5565489A, “Epoxycyclohexenedione derivatives” (Kyowa Hakko Kogyo Co., Ltd., priority 1993, dated 1996).

Molecules are shown by their SMILES. Converted amounts (≈) assume the structure as drawn.

For assay [1], the system named is Staphylococcus aureus ATCC 6538P. In words: Antimicrobial activity, agar dilution method (SA). The format is cell-based. To be noted: ATCC6538P, pH 7. The method, then: (§1) Antimicrobial activity was measured by an agar dilution method using a culture medium (pH 7) prepared by dissolving 3 g of Bacto-tryptone (Difco), 3 g of meat extract, 1 g of yeast extract, 1 g of glucose, and 16 g of agar in 1 l of water. The antimicrobial activity was expressed in terms of minimum growth inhibitory concentration (MIC).

Assay [2] concerns Staphylococcus aureus, Enterococcus faecium, Bacillus subtilis. The experiment in a line: Antimicrobial activity, agar dilution method (summary of Table 4). The format is cell-based. To be noted: Table 4 summary. The method, then:
as §1
(In agar dilution the substance is mixed into plates at graded concentrations.)

Assay [3] deals with Enterococcus faecium ATCC 10541. In words: Antimicrobial activity, agar dilution method (EF). To be noted: ATCC10541, pH 7. The assay is classed as cell-based. How it is done:
as §1

The test system of assay [4] is Bacillus subtilis No. 10707. In words: Antimicrobial activity, agar dilution method (BS). The assay is classed as cell-based. As to conditions: pH 7. The method, then: as §1
Assay [5] has as its target T1, FTase (Bos taurus, UniProt P29702+P49355).
T1 construct: An extract of minced bovine brain was subjected to column chromatography on DEAE-Sephacel (Pharmacia); from tissue; host or cells: bovine brain; DEAE-Sephacel active fraction, crude enzyme solution
In words: FTase inhibitory activity (farnesylation of C-terminal peptide of lamin B, crude bovine brain enzyme, FTase [^3 H]SPA enzyme assay kit). The assay is classed as biochemical. As to conditions: for inhibitory activity against FTase (in words): Table 2 summary; for IC50: bovine brain enzyme, lamin B C-terminal peptide. How it is done: (§2) FTase Inhibitory Activity
An extract of minced bovine brain was subjected to column chromatography on DEAE-Sephacel (Pharmacia). The active fraction was concentrated by ultrafiltration and dialyzed against a mixture of 20 mM Tris-HCl (pH 8.0), 50 mM NaCl, […], 1 mM DTT, 0.2 mM phenylmethylsulfonyl fluoride (PMSF). The resulting dialysate was used as a crude enzyme solution. Measurement of activity was carried out by using the enzyme obtained by the above-mentioned method and an FTase [^3 H]SPA enzyme assay kit (Amersham). Enzyme inhibitory activity was measured as inhibition of farnesylation of the C-terminal peptide of lamin B by the test compound in the above-mentioned reaction system. The enzyme inhibitory activity of a group treated with a test compound of a known concentration was compared with that of a non-treated group to calculate the concentration of the test compound for 50% inhibition of farnesylation (IC50).

For assay [6], the target named is T2, FTase (Rattus norvegicus, UniProt Q02293+Q04631).
T2 construct: The FTase used for the assay was obtained from rat brain as follows; from tissue; host or cells: male rat brain; ammonium sulfate fraction, Mono Q 10/10, partially purified
In words: FTase inhibitory activity (farnesylation of v-Ki-ras p21, partially purified rat brain FTase). The assay is classed as biochemical. As to conditions: for IC50: rat brain FTase, v-Ki-ras p21 substrate. The method, then: as §2
The FTase used for the assay was obtained from rat brain as follows. An extract of minced brain of a male rat was salted out using ammonium sulfate. The fraction obtained at 50% saturation was dissolved in a buffer solution (20 mM Tris-HCl, pH 7.5, 1 mM dithiothreitol (DTT), 20 μM ZnCl2) and further fractionated by column chromatography using a Mono Q 10/10 column. The column was eluted by gradient elution with 0.3 to 0.4 M NaCl. The active fraction eluted at near 0.35 M NaCl, was used as a partially purified preparation. Measurement of the activity was carried out by using the thus prepared enzyme and v-Ki-ras p21 as a substrate. The v-Ki-ras p21, used as a substrate, was obtained by high expression using Escherichia coli, followed by purification according to the method of Tamaoki, et al. [Biochem. Biophys. […] The enzyme inhibitory activity was measured as inhibition of the test compound on farnesylation of the C-terminal of v-ki-ras p21 in the above-mentioned reaction system.

For the next assay, the target named is FTase of yeast origin. As to conditions: ras protein of yeast origin as substrate; read-out: IC50 against FTase of yeast origin; cited from earlier work.
Assay [7] has as its system FTase. To be noted: not numerically described; cited from earlier work.
The test system of assay [8] is NIH 3T3 fibroblasts transformed by oncogene EJ-ras. In words: Inhibitory activity on cell growth of NIH 3T3/EJ-ras. The format is cell-based. How it is done:
Inhibitory Activity on Cell Growth
The antitumor activity was measured by using NIH 3T3 fibroblasts transformed by oncogene EJ-ras (hereinafter referred to as "NIH 3T3/EJ-ras").
NIH 3T3/EJ-ras cells were suspended in a DME medium (Nissui KK) containing 10% fetal bovine serum, penicillin (100 U/ml) and streptomycin (100 μg/ml) (hereinafter referred to as medium A) in a cell concentration of 1.0×10^4 cells/ml. Each well of a […] microtiter plate was inoculated with 0.1 ml of the cell suspension, and the system was monolayer cultured by incubation in a carbondioxide incubator at 37° C. for 24 hours. To each well was added 0.1 ml of a test compound appropriately diluted with medium A, followed by incubation in the carbondioxide incubator at 37° C. for 72 hours. The cells were recovered by trypsinization, and the number of the cells was counted with a cell counter. A concentration of the test compound for 50% inhibition of cell growth (IC50) was calculated.

As for `CCCCCCCCCCCC(=O)NC1=CC(=O)C2OC2C1=O` (stereo not drawn) [Compound I-2, 4,5-Epoxy-l-lauroylamino-3,6-dioxocyclohexene], the MIC was more than 100 µg/mL in assay [1], 0.04 µg/mL (≈ 0.124 µM) in [3] and 0.08 µg/mL (≈ 0.249 µM) in assay [4]. In addition, the “antimicrobial activity (in words)” value in assay [2] was “remarkable antimicrobial activity”. Also, on FTase [5], the “inhibitory activity against FTase (in words)” value is reported as “obvious inhibitory activity against FTase”. At FTase [5], this compound came in with an IC50 of 21 µM.
As for `CCCCC/C=C\C/C=C\CCCCCCCC(=O)NC1=CC(=O)C2OC2C1=O` (stereo not drawn) [Compound I-4, 4,5-Epoxy-1-linoleoylamino-3,6-dioxocyclohexene], the minimal inhibitory concentration (MIC) was more than 100 µg/mL in assay [1], 0.33 µg/mL (≈ 0.822 µM) in assay [3] and 0.65 µg/mL (≈ 1.62 µM) in assay [4]. Moreover, in assay [2], the “antimicrobial activity (in words)” value is on record as “remarkable antimicrobial activity”. Moreover, the “inhibitory activity against FTase (in words)” value against FTase [5] is on record as “obvious inhibitory activity against FTase”. This compound showed an IC50 against FTase [5] of 19 µM.
With `CC(C)=CCC/C(C)=C/CC/C(C)=C/CC/C(C)=C/C(=O)NC1=CC(=O)C2OC2C1=O` (stereo not drawn) [Compound I-5, 4,5-Epoxy-1-geranylgeranoylamino-3,6-dioxocyclohexene], the results for the MIC in [1], in [3] and in assay [4] were more than 100 µg/mL, 0.65 µg/mL (≈ 1.53 µM) and 0.65 µg/mL (≈ 1.53 µM), respectively. Further, the “antimicrobial activity (in words)” value in assay [2] was “remarkable antimicrobial activity”. At FTase [5], the “inhibitory activity against FTase (in words)” value was “obvious inhibitory activity against FTase”. Further, the IC50 against FTase [5] came out at 23 µM.
As to `CCCC[C@@H](C)/C=C(C)/C=C(\C)C(=O)NC1=C[C@](O)(/C=C/C=C/C=C/C(=O)NC2=C(O)CCC2=O)[C@@H]2O[C@@H]2C1=O` [Manumycin, reference compound], the figures for the IC50 against FTase [6] (Experiment 1), at FTase [6] (Experiment 2) and on FTase of yeast origin were 76 µM, 35 µM and 5 µM, respectively.
Take `CCCCC(C)/C=C(C)/C=C/C(=O)NC1=CC(=O)[C@@H]2O[C@@H]2C1=O` (stereo partly drawn) [IVc]: in the assay on FTase [7], the “FTase inhibitory activity (in words)” value is on record as “the activity of these compounds can be detected”.
The compound `CCCC[C@@H](C)/C=C(C)/C=C(\C)C(=O)NC1=CC(=O)[C@@H]2O[C@@H]2C1=O` [IVa, reference compound] came in with an IC50 against FTase [6] (Experiment 2) of 60 µM. Also, the “FTase inhibitory activity (in words)” value in the assay on FTase [7] is listed as “the activity of these compounds can be detected”.
For `CCCCC(C)/C=C(\C)C(=O)NC1=CC(=O)[C@@H]2O[C@@H]2C1=O` (stereo partly drawn) [IVb], in the assay on FTase [7], the “FTase inhibitory activity (in words)” value is “the activity of these compounds can be detected”.
Take `CC(C)=CCC/C(C)=C/CC/C(C)=C/C(=O)NC1=CC(=O)[C@@H]2O[C@@H]2C1=O` (relative stereo) [Compound I-1, 4,5-Epoxy-1-farnesoylamino-3,6-dioxocyclohexene]: the IC50 against FTase [6] (Experiment 1) came to 18 µM; against FTase [5], 21 µM; in assay [8] (Mus musculus, NIH3T3, NIH 3T3/EJ-ras, 72 hours), 4.3 µM. Also, the “inhibitory activity against FTase (in words)” value against FTase [6] (Table 1 summary) and against FTase [5] was “obvious inhibitory activity against FTase” throughout. For the same compound, the “inhibitory activity compared with manumycin and compound IVa (in words)” value on FTase [6] (Table 1 summary, as compared with manumycin and compound IVa) was “significantly strong as compared with those of manumycin and compound IVa”. For the same compound, the MIC in assay [1] is 0.91 µg/mL (≈ 2.55 µM); in assay [3] it was 0.46 µg/mL (≈ 1.29 µM); in [4], 0.46 µg/mL (≈ 1.29 µM). In addition, the “antimicrobial activity (in words)” value in assay [2] is recorded as “remarkable antimicrobial activity”. Also, the “inhibitory activity on growth (in words)” value in assay [8] (Table 3 summary) is “obvious inhibitory activity on growth of the NIH 3T3 fibroblasts transformed by oncogene EJ-ras”.
